Test results published in patent publication US9770407B2 (Lundbeck Pharmaceuticals LLC, priority 2005, dated 2017).
Where two headings read alike, the source gives them in different places.

Key:
[1] = immediate release and extended release tablets; previously estimated; cited from earlier work
[2] = Subset analysis of subjects on extended release CBZ twice daily: predicted IV vs observed oral steady-state Cmax, Cmin, AUC; format: in vivo, human; details: N=47; for AUC: human, plasma
Method: A subset analysis of the subject data (n=47), including only those subjects taking extended release (ER) formulations of CBZ twice daily (as indicated by the product label), was performed to compare predicted maximum and minimum exposures of CBZ at steady-state administered via IV infusion to those observed following oral administration. CBZ concentration-time profiles following IV administration will differ from oral administration to the greatest extent for subjects on ER products, since these products provide formulation dependent control of the concentration-time profile. Subjects on extended release formulations experience the least fluctuation in concentrations and will maintain higher relative trough concentrations compared to any non-extended release product. Thus, the analysis in this subset gives a conservative assessment of potential differences in peak and trough exposures following IV administration. This analysis included calculations of predicted Cmax, Cmin, and AUCss values of CBZ for subjects predicted to be at steady-state on IV therapy.

[3] = 5th Percentile, observed, ER products twice daily
[4] = 5th Percentile, predicted, IV every 6 hours
[5] = 95th Percentile, observed, ER products twice daily
[6] = 95th Percentile, predicted, IV every 6 hours
[7] = Maximum, observed, ER products twice daily
[8] = Maximum, predicted, IV every 6 hours
[9] = Median, observed, ER products twice daily
[10] = Median, predicted, IV every 6 hours
[11] = Minimum, observed, ER products twice daily
[12] = Minimum, predicted, IV every 6 hours

Compound: NC(=O)N1c2ccccc2C=Cc2ccccc21 [Carbamazepine, 5H-dibenz[b,f]azepine-5-carboxamide]
- absolute bioavailability [1]: 75-85
- Oral Cmaxss [2, 3]: 4980 ng/mL
- Oral Cminss [2, 3]: 4320 ng/mL
- IV CmaxSS (mean F = 0.7) [2, 4]: 4800 ng/mL
- IV CminSS (mean F = 0.7) [2, 4]: 2480 ng/mL
- Oral Cmaxss [2, 5]: 14600 ng/mL
- Oral Cminss [2, 5]: 14550 ng/mL
- IV CmaxSS (mean F = 0.7) [2, 6]: 24140 ng/mL
- IV CminSS (mean F = 0.7) [2, 6]: 18640 ng/mL
- Oral Cmaxss [2, 7]: 17100 ng/mL
- Oral Cminss [2, 7]: 16690 ng/mL
- IV CmaxSS (mean F = 0.7) [2, 8]: 47000 ng/mL
- IV CminSS (mean F = 0.7) [2, 8]: 41040 ng/mL
- IV CmaxSS (mean F = 0.7) ([2]; Maximum, predicted, IV every 6 hours, listed as CBZ): 47000 ng/mL
- Oral Cmaxss ([2]; Mean ± SD, observed, ER products (Carbatrol, Tegretol XR) twice daily, highest observed concentration, sparse sampling): 9920 ± 2990 ng/mL
- Oral Cminss ([2]; Mean ± SD, observed, ER products twice daily): 9320 ± 2930 ng/mL
- IV CminSS (mean F = 0.7) ([2]; Mean ± SD, predicted, IV every 6 hours): 8630 ± 6850 ng/mL
- IV CmaxSS (mean F = 0.7) ([2]; Mean ± SD, predicted, scaled from 100 mg single IV dose over 10 minutes, every 6 hours): 11750 ± 7900 ng/mL
- IV CmaxSS (mean F = 0.7) ([2]; Mean ± SD, predicted, scaled from 100 mg single IV dose over 10 minutes, every 6 hours, listed as CBZ): 11750 ng/mL
- Oral Cmaxss [2, 9]: 9810 ng/mL
- Oral Cminss [2, 9]: 9440 ng/mL
- IV CmaxSS (mean F = 0.7) [2, 10]: 9930 ng/mL
- IV CminSS (mean F = 0.7) [2, 10]: 6500 ng/mL
- Oral Cmaxss [2, 11]: 2890 ng/mL
- Oral Cminss [2, 11]: 2890 ng/mL
- IV CmaxSS (mean F = 0.7) [2, 12]: 3170 ng/mL
- IV CminSS (mean F = 0.7) [2, 12]: 1650 ng/mL
- AUC ([2]; iv, 5th Percentile, predicted, IV every 6 hours, read-out: IV AUCSS (mean F = 0.7)): 43100 ng·h/mL
- AUC ([2]; iv, 95th Percentile, predicted, IV every 6 hours, read-out: IV AUCSS (mean F = 0.7)): 257000 ng·h/mL
- AUC ([2]; iv, Maximum, predicted, IV every 6 hours, read-out: IV AUCSS (mean F = 0.7)): 551000 ng·h/mL
- AUC ([2]; iv, Mean ± SD, predicted, IV every 6 hours, read-out: IV AUCSS (mean F = 0.7)): 122000 ± 90900 ng·h/mL
- AUC ([2]; iv, Median, predicted, IV every 6 hours, read-out: IV AUCSS (mean F = 0.7)): 93700 ng·h/mL
- AUC ([2]; iv, Minimum, predicted, IV every 6 hours, read-out: IV AUCSS (mean F = 0.7)): 26900 ng·h/mL
- AUC ([2]; po, 5th Percentile, observed, ER products, 12 hour dosing interval, read-out: Oral AUCss): 50100 ng·h/mL
- AUC ([2]; po, 95th Percentile, observed, ER products, 12 hour dosing interval, read-out: Oral AUCss): 146000 ng·h/mL
- AUC ([2]; po, Maximum, observed, ER products, 12 hour dosing interval, read-out: Oral AUCss): 168000 ng·h/mL
- AUC ([2]; po, Mean ± SD, observed, ER products, 12 hour dosing interval, read-out: Oral AUCss): 96800 ± 28100 ng·h/mL
- AUC ([2]; po, Median, observed, ER products, 12 hour dosing interval, read-out: Oral AUCss): 96000 ng·h/mL
- AUC ([2]; po, Minimum, observed, ER products, 12 hour dosing interval, read-out: Oral AUCss): 28500 ng·h/mL
